Assay [1] has as its target T1, recombinant guanylate cyclase reporter cell line (Rattus norvegicus, UniProt P19686+P20595).
T1 construct: expressed in transfected cells
T1 sequence (P19686 1-690): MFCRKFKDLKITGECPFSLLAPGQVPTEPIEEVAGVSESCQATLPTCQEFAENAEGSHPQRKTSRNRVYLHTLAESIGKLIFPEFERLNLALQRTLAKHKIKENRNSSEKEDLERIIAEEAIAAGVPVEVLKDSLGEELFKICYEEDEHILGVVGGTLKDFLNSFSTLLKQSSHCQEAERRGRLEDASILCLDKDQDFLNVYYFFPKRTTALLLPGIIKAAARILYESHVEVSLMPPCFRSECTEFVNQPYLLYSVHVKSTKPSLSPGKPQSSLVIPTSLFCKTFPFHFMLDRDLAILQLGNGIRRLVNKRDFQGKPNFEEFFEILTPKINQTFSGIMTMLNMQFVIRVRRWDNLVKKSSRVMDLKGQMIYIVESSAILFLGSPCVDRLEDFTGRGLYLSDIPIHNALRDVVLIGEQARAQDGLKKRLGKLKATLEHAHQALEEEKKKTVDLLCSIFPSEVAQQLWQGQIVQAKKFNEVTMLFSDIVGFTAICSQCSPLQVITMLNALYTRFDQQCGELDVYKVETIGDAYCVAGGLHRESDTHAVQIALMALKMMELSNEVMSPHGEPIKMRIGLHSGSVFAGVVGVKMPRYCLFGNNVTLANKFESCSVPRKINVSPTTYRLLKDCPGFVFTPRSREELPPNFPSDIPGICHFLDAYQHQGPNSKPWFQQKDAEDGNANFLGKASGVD
T1 sequence (P20595 1-619): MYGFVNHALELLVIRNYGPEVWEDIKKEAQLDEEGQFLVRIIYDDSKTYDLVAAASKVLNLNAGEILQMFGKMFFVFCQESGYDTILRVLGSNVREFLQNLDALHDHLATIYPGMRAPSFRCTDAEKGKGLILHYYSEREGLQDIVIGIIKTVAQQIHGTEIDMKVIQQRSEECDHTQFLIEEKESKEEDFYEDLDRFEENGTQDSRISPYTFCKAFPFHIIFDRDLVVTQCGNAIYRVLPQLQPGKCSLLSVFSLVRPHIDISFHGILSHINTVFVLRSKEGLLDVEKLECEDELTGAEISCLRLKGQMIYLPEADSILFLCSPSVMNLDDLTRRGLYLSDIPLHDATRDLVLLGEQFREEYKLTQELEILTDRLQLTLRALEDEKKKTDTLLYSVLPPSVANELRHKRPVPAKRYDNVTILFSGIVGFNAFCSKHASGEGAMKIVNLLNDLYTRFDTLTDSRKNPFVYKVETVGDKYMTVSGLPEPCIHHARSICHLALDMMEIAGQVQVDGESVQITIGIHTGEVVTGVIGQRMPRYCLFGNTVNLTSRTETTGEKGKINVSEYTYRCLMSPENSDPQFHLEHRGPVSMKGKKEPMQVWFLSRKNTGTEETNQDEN
The assay can be described thus: Effect on a recombinant guanylate cyclase reporter cell line. Format: cell-based. The note with it: MEC = minimum effective concentration; in some cases means of individual determinations. How it is done: B-2. Effect on a Recombinant Guanylate Cyclase Reporter Cell Line
The cellular activity of the compounds of the invention is determined using a recombinant guanylate cyclase reporter cell line, as described in F. Wunder et al., Anal. Biochem. 2005, 339, 104-112. Representative values (MEC=minimum effective concentration) for the compounds of the invention are shown in the table below (Table 1B; in some cases as means of individual determinations): […]

The target of assay [2] is T2, human phosphodiesterase 5 (PDE 5) (Homo sapiens, UniProt O76074).
T2 construct: PDE 5 preparations are obtained from human platelets by disruption; from tissue; host or cells: human platelets
The assay can be described thus: Inhibition of human phosphodiesterase 5 (PDE 5). Format: biochemical. The note with it: PDE 5 preparation from human platelets; in some cases means of individual determinations. How it is done:
B-3. Inhibition of Human Phosphodiesterase 5 (PDE 5)
PDE 5 preparations are obtained from human platelets by disruption (Microfluidizer®, 800 bar, 3 passes), followed by centrifugation (75 000 g, 60 min, 4° C.) and ion exchange chromatography of the supernatant on a Mono Q 10/10 column (linear sodium chloride gradient, elution with a 0.2-0.3M solution of sodium chloride in buffer (20 mM Hepes pH 7.2, 2 mM magnesium chloride). Fractions having PDE 5 activity are combined (PDE 5 preparation) and stored at −80° C.
To determine their in vitro action on human PDE 5, the test substances are dissolved in 100% DMSO and serially diluted. Typically, dilution series (1:3) from 200 μM to 0.091 μM are prepared (resulting final concentrations in the test: 4 μM to 0.0018 μM). In each case 2 μl of the diluted substance solutions are placed into the wells of microtitre plates (Isoplate-96/200W; Perkin Elmer). Subsequently, 50 μl of a dilution of the above-described PDE 5 preparation are added. The dilution of the PDE 5 preparation is chosen such that during the later incubation less than 70% of the substrate are converted (typical dilution: 1:100; dilution buffer: 50 mM tris/hydrochloric acid pH 7.5, 8.3 mM magnesium chloride, 1.7 mM EDTA, 0.2% BSA). The substrate, [8-^3H] cyclic guanosine-3′,5′-monophosphate (1 μCi/μl; Perkin Elmer), is diluted 1:2000 with assay buffer (50 mM tris/hydrochloric acid pH 7.5, 8.3 mM magnesium chloride, 1.7 mM EDTA) to a concentration of 0.0005 μCi/μl. By addition of 50 μl (0.025 μCi) of the diluted substrate, the enzyme reaction is finally started. The test mixtures are incubated at room temperature for 60 min and the reaction is stopped by adding 25 μl of a suspension of 18 mg/ml yttrium scintillation proximity beads in water (phosphodiesterase beads for SPA assays, RPNQ 0150, Perkin Elmer). The microtitre plates are sealed with a film and left to stand at room temperature for 60 min. Subsequently, the plates are analysed for 30 s per well in a Microbeta scintillation counter (Perkin Elmer). IC50 values are determined using the graphic plot of the substance concentration against percentage PDE 5 inhibition.

The structures appear in SMILES notation.

We go through 16 molecules from patent publication US20170233413A1, “SUBSTITUTED ANNULATED PYRIMIDINES AND USE THEREOF” (Bayer Pharma Aktiengesellschaft, priority 2014, published 2017).

One may read the IC50 as the midpoint of a concentration-inhibition curve. The low end stands for greater potency, the high end for weaker potency. With `CC1(C)C(=O)Nc2nc(-c3nn(Cc4ccccc4F)c4ncc(F)cc34)nc(C(=O)N3CCCC3)c21` (single isomer, unassigned) [Example 54], the MEC in assay [1] was 0.03 µM. For the same molecule, the IC50 in assay [2] worked out at 1200 nM.

Regarding `Cc1nc2c(cc1F)c(-c1nc3c(c(C(N)=O)n1)C(C)(C(F)(F)F)C(=O)N3)nn2Cc1cccc(F)c1F` (racemic) [Example 9, rac-2-[1-(2,3-difluorobenzyl)-5-fluoro-6-methyl-1H-pyrazolo[3,4-b]pyridin-3-yl]-5-methyl-6-oxo-5-(trifluoromethyl)-6,7-dihydro-5H-pyrrolo[2,3-d]pyrimidine-4-carboxamide], the MEC in assay [1] came to 0.3 µM. For the same molecule, in assay [2], 58 nM corresponded to half-maximal inhibition (IC50).

With `CC1(C)C(=O)Nc2nc(-c3nn(Cc4ccccc4F)c4cc(Cl)ccc34)nc(C(=O)NCCC(F)(F)F)c21` [Example 45], the MEC in assay [1] came to 0.3 µM. Moreover, the IC50 in assay [2] came out at 130 nM.

For `CC1(C)C(=O)Nc2nc(-c3nn(Cc4ccccc4F)c4ncccc34)nc(C(N)=O)c21` [Example 1, 2-[1-(2-Fluorobenzyl)-1H-pyrazolo[3,4-b]pyridin-3-yl]-5,5-dimethyl-6-oxo-6,7-dihydro-5H-pyrrolo[2,3-d]pyrimidine-4-carboxamide], the MEC in assay [1] worked out at 0.065 µM. The same molecule registered an IC50 in assay [2] of 20 nM.

Turning to `CC1(C)C(=O)Nc2nc(-c3nn(Cc4ccccc4F)c4ncc(F)cc34)nc(C(=O)NCC3CC3)c21` [Example 49], the MEC in assay [1] came out at 0.1 µM. In assay [2], this molecule had a concentration for half-maximal inhibition (IC50) of 33 nM.

For `CCC(CC)CNC(=O)c1nc(-c2nn(Cc3ccccc3F)c3ncccc23)nc2c1C(C)(C)C(=O)N2` [Example 59, N-(2-Ethylbutyl)-2-[1-(2-fluorobenzyl)-1H-pyrazolo[3,4-b]pyridin-3-yl]-5,5-dimethyl-6-oxo-6,7-dihydro-5H-pyrrolo[2,3-d]pyrimidine-4-carboxamide], the MEC in assay [1] stood at 1 µM. For the same molecule, the IC50 in assay [2] is 91 nM.

Take `Cc1ccncc1NC(=O)c1nc(-c2nn(Cc3ccccc3F)c3ncccc23)nc2c1C(C)(C)C(=O)N2` [Example 119, 2-[1-(2-fluorobenzyl)-1H-pyrazolo[3,4-b]pyridin-3-yl]-5,5-dimethyl-N-(4-methylpyridin-3-yl)-6-oxo-6,7-dihydro-5H-pyrrolo[2,3-d]pyrimidine-4-carboxamide]: the MEC in assay [1] was 0.3 µM. The molecule further came in with an IC50 in assay [2] of 10 nM.

In the case of `Cc1nc2c(cc1F)c(-c1nc3c(c(C(N)=O)n1)C(C)(C(F)(F)F)C(=O)N3)nn2Cc1c(F)ccc(F)c1F` (single isomer, unassigned; ent-2) [Example 17, ent-2-[5-Fluoro-6-methyl-1-(2,3,6-trifluorobenzyl)-1H-pyrazolo[3,4-b]pyridin-3-yl]-5-methyl-6-oxo-5-(trifluoromethyl)-6,7-dihydro-5H-pyrrolo[2,3-d]pyrimidine-4-carboxamide (enantiomer B)], the MEC in assay [1] is 0.03 µM. In assay [2], this molecule returned an IC50 of 280 nM.

`CC(C)C(C)NC(=O)c1nc(-c2nn(Cc3ccccc3F)c3ncccc23)nc2c1C(C)(C)C(=O)N2` (racemic) [Example 133, rac-2-[1-(2-fluorobenzyl)-1H-pyrazolo[3,4-b]pyridin-3-yl]-5,5-dimethyl-N-(3-methylbutan-2-yl)-6-oxo-6,7-dihydro-5H-pyrrolo[2,3-d]pyrimidine-4-carboxamide]: the MEC in assay [1] is 1 µM. For the same molecule, the half-maximal inhibitory concentration (IC50) in assay [2] is 30 nM.

As to `CC1(C)C(=O)Nc2nc(-c3nn(Cc4ccccc4F)c4ncccc34)nc(C(=O)Nc3cc(F)cc(F)c3)c21` [Example 76, N-(3,5-difluorophenyl)-2-[1-(2-fluorobenzyl)-1H-pyrazolo[3,4-b]pyridin-3-yl]-5,5-dimethyl-6-oxo-6,7-dihydro-5H-pyrrolo[2,3-d]pyrimidine-4-carboxamide], in assay [1], the MEC turned out to be 1 µM. In assay [2], this molecule showed an IC50 of 60 nM.

Consider `Cc1nc2c(cc1F)c(-c1nc3c(c(C(N)=O)n1)C(C)(C(F)(F)F)C(=O)N3)nn2Cc1ccccc1F` (single isomer, unassigned; ent-2) [Example 14, ent-2-[5-fluoro-1-(2-fluorobenzyl)-6-methyl-1H-pyrazolo[3,4-b]pyridin-3-yl]-5-methyl-6-oxo-5-(trifluoromethyl)-6,7-dihydro-5H-pyrrolo[2,3-d]pyrimidine-4-carboxamide (enantiomer B)], for which, in assay [1], the MEC is 0.03 µM. The molecule further had an IC50 in assay [2] of 130 nM.

With `CC(CC1CC1)NC(=O)c1nc(-c2nn(Cc3ccccc3F)c3ncccc23)nc2c1C(C)(C)C(=O)N2` (racemic) [Example 68, rac-N-(1-cyclopropylpropan-2-yl)-2-[1-(2-fluorobenzyl)-1H-pyrazolo[3,4-b]pyridin-3-yl]-5,5-dimethyl-6-oxo-6,7-dihydro-5H-pyrrolo[2,3-d]pyrimidine-4-carboxamide], the MEC in assay [1] was found to be 0.1 µM. Also, inhibition in assay [2] was half-maximal at 13 nM (IC50).

As for `CC1(C)C(=O)Nc2nc(-c3nn(Cc4ccccc4F)c4ncccc34)nc(C(=O)NCCC(N)=O)c21` [Example 95, N-(3-amino-3-oxopropyl)-2-[1-(2-fluorobenzyl)-1H-pyrazolo[3,4-b]pyridin-3-yl]-5,5-dimethyl-6-oxo-6,7-dihydro-5H-pyrrolo[2,3-d]pyrimidine-4-carboxamide], the MEC in assay [1] stood at 1 µM. Further, half-maximal inhibition in assay [2] (IC50) required 48 nM.

Turning to `CC1(C)C(=O)Nc2nc(-c3nn(Cc4ccccc4F)c4ncccc34)nc(C(=O)NCc3ccccc3)c21` [Example 115, N-benzyl-2-[1-(2-fluorobenzyl)-1H-pyrazolo[3,4-b]pyridin-3-yl]-5,5-dimethyl-6-oxo-6,7-dihydro-5H-pyrrolo[2,3-d]pyrimidine-4-carboxamide], in assay [1], the MEC was 0.1 µM. In addition, the IC50 in assay [2] is 41 nM.

For `CC1(C)C(=O)Nc2nc(-c3nn(Cc4ccccc4F)c4cc(Cl)ccc34)nc(C(=O)NC3CC3)c21` [Example 43], in assay [1], the MEC is 0.3 µM. For the same molecule, the IC50 in assay [2] came to 14 nM.

In the case of `Cc1nc2c(cc1F)c(-c1nc3c(c(C(=O)N(C)CCO)n1)C(C)(C)C(=O)N3)nn2Cc1cccc(F)c1F` [Example 40], the MEC in assay [1] turned out to be 0.03 µM. In assay [2], the IC50 was determined as 240 nM.
